The text below walks through data of US20040102622A1, “Modulation of hepatocyte growth factor receptor expression” (Isis Pharmaceuticals Inc., priority 2002, published 2004).

Strand notation (5' to 3'): a small letter for the sugar, then the base; units joined by * are phosphorothioate-linked, units joined directly phosphodiester-linked; [ ] holds rarer units or linkages, { } end groups; capitals alone tell only the bases. e = 2'-O-(2-methoxyethyl) (MOE); [5mC] = 5-methylcytosine; d = 2'-deoxy (DNA)

The subject of this series is human hepatocyte growth factor receptor mRNA. Briefly: Inhibition of human hepatocyte growth factor receptor mRNA levels in T-24 cells, quantitative real-time PCR. Note: test concentration or dose not given here. The conditions noted are these: averages from three experiments.
As for “155114 (antisense eA*eA*eT*eT*eG*dT*dT*dG*d[5mC]*dT*dT*dT*d[5mC]*dA*dA*eA*eG*eG*e[5mC]*eA) [compound 155114]”, the “% INHIB (inhibition of human hepatocyte growth factor receptor mRNA levels)” value (shortened to “% INHIB”) was 94%. For “155115 (antisense eA*eG*eT*eT*e[5mC]*d[5mC]*dT*dT*d[5mC]*d[5mC]*dT*dG*d[5mC]*dT*dT*e[5mC]*eA*eT*eG*e[5mC]) [compound 155115]” the value was 89%; for “155116 (antisense eA*eA*eA*eT*e[5mC]*dT*dT*dT*d[5mC]*dA*dT*dG*dA*dT*dG*eA*eT*eT*e[5mC]*e[5mC]) [compound 155116]”, 54%. On to “155117 (antisense eG*eT*eA*eG*eA*dT*dT*dG*d[5mC]*dA*dG*dG*d[5mC]*dA*dG*eA*e[5mC]*eA*eG*eA) [compound 155117]”, for which the “% INHIB” value is 75%. The same measure for “155118 (antisense e[5mC]*eA*eT*e[5mC]*e[5mC]*dA*dG*d[5mC]*dA*dT*dA*d[5mC]*dA*dG*dT*eT*eT*e[5mC]*eT*eT) [compound 155118]”: 55%. The same measure for “155119 (antisense eA*eA*eG*eT*eA*dT*dA*dT*dT*dA*dA*dA*d[5mC]*dA*d[5mC]*eT*eT*e[5mC]*e[5mC]*eT) [compound 155119]”: 92%; for “155120 (antisense eG*eT*eG*eT*e[5mC]*d[5mC]*dT*dA*dT*dT*dA*dA*dA*dG*d[5mC]*eA*eG*eT*eG*e[5mC]) [compound 155120]”: 90%; for “155121 (antisense eT*eG*eA*eA*eA*dG*dG*dA*d[5mC]*dT*dT*dT*dG*dG*d[5mC]*eT*e[5mC]*e[5mC]*e[5mC]*eA) [compound 155121]”: 79%. The same measure for “155122 (antisense eA*eA*eG*e[5mC]*e[5mC]*dT*dA*dT*d[5mC]*d[5mC]*dA*dA*dA*dT*dG*eA*eG*eG*eA*eG) [compound 155122]”: 69%; for “155123 (antisense eG*e[5mC]*eA*eA*eA*dG*d[5mC]*dT*dG*dT*dG*dG*dT*dA*dA*eA*e[5mC]*eT*e[5mC]*eT) [compound 155123]”: 91%. With “155124 (antisense eT*eA*eT*eG*eA*dT*dG*dT*d[5mC]*dT*d[5mC]*d[5mC]*d[5mC]*dA*dG*eA*eA*eG*eG*eA) [compound 155124]”, the “% INHIB” value was 53%.

Take “155125 (antisense eG*eG*eA*eA*eA*d[5mC]*dT*dG*dA*dT*d[5mC]*dT*dT*d[5mC]*dT*eG*eG*eA*eA*eA) [compound 155125]”: the “% INHIB” value came out at 52%. The same measure for “155126 (antisense e[5mC]*eT*eG*eT*eG*d[5mC]*dA*dT*dT*dT*d[5mC]*dA*dA*dT*dG*eT*eA*eT*eT*e[5mC]) [compound 155126]”: 68%; for “155127 (antisense eG*eA*eT*e[5mC]*eT*dG*dG*dT*dT*dG*dA*dA*d[5mC]*dT*dA*eT*eT*eA*e[5mC]*eT) [compound 155127]”: 84%; for “155128 (antisense eA*e[5mC]*eT*eG*eT*dG*dA*dA*dT*dT*dT*dT*dT*d[5mC]*dA*eT*e[5mC]*e[5mC]*eA*eG) [compound 155128]”: 83%. The same measure for “155129 (antisense eG*eA*eT*eT*eG*dG*dG*dT*d[5mC]*d[5mC]*dG*dT*dA*dA*dA*eA*eA*eT*eG*e[5mC]) [compound 155129]”: 59%; for “155130 (antisense eT*e[5mC]*eT*e[5mC]*eT*dG*dA*dA*d[5mC]*dT*d[5mC]*dA*dG*dG*dT*eA*eA*eA*eA*e[5mC]) [compound 155130]”: 83%. The same measure for “155131 (antisense e[5mC]*eA*eA*eT*eT*dT*dG*dG*d[5mC]*dA*dA*dG*dG*dA*dG*e[5mC]*eA*eA*eA*eG) [compound 155131]”: 0%; for “155132 (antisense eG*eA*eT*eT*e[5mC]*d[5mC]*d[5mC]*dT*d[5mC]*dG*dG*dT*d[5mC]*dA*dG*eA*eA*eA*eT*eT) [compound 155132]”: 39%; for “155133 (antisense eA*eA*eA*e[5mC]*e[5mC]*dA*dT*dT*dT*d[5mC]*dT*dG*dT*dA*dG*eT*eT*eG*eG*eG) [compound 155133]”: 68%.

For the substance “209521 (antisense eG*eG*eA*eA*e[5mC]*d[5mC]*dA*dG*dT*dG*dG*dA*dG*dA*dA*eG*eT*e[5mC]*eA*eG) [compound 209521]”, the “% INHIB” value stood at 58%. On to “209522 (antisense eA*eG*eA*eG*eG*dT*dT*dT*dA*dT*d[5mC]*dT*dT*dT*d[5mC]*eG*eG*eT*eG*e[5mC]) [compound 209522]”, for which the “% INHIB” value is listed as 73%. The same measure for “209523 (antisense eG*eG*eG*e[5mC]*e[5mC]*dT*dT*d[5mC]*dA*dT*dT*dA*dT*dG*dA*eG*eA*eG*eG*eT) [compound 209523]”: 84%.

Regarding “209524 (antisense e[5mC]*eT*e[5mC]*eA*eT*dG*dT*dA*dG*dA*dA*dT*dG*dA*d[5mC]*eA*eT*eT*e[5mC]*eT) [compound 209524]”, the “% INHIB” value worked out at 95%. For “209525 (antisense e[5mC]*eT*eG*eG*eT*d[5mC]*d[5mC]*dG*dT*d[5mC]*dA*dA*dA*dA*dA*e[5mC]*eA*eT*eA*eA) [compound 209525]” the value was 89%. For “209526 (antisense eT*eT*eG*eA*eT*dA*dG*dG*dG*dA*dA*dT*dG*d[5mC]*dA*e[5mC]*eA*e[5mC]*eA*eT) [compound 209526]” the value was 93%. Regarding “209527 (antisense e[5mC]*eG*e[5mC]*eT*eT*d[5mC]*dA*d[5mC]*dA*dG*d[5mC]*d[5mC]*dT*dG*dA*eT*eG*eA*eA*eT) [compound 209527]”, the “% INHIB” value came to 81%. The same measure for “209528 (antisense eT*eT*eG*eG*eG*dA*dA*dA*dA*d[5mC]*d[5mC]*dT*dT*dG*dT*eA*eG*eA*eT*eT) [compound 209528]”: 42%; for “209529 (antisense e[5mC]*e[5mC]*e[5mC]*eA*eG*d[5mC]*d[5mC]*dA*d[5mC]*dA*dT*dA*dT*dG*dG*eT*e[5mC]*eA*eG*e[5mC]) [compound 209529]”: 87%; for “209530 (antisense eT*eT*eA*e[5mC]*eA*dG*dG*dA*dT*d[5mC]*d[5mC]*dA*d[5mC]*dA*dT*eA*eG*eG*eA*eG) [compound 209530]”: 81%. The same measure for “209531 (antisense eT*eA*eA*eG*eT*d[5mC]*dA*dA*dT*dT*dT*dT*d[5mC]*dA*dA*eT*eT*eT*eA*eA) [compound 209531]”: 13%; for “209532 (antisense eA*eG*eT*eA*e[5mC]*dT*dA*dA*dT*dA*dA*dA*dA*dG*dA*eT*eT*eT*eG*eG) [compound 209532]”: 0%. The same measure for “209533 (antisense e[5mC]*eA*e[5mC]*e[5mC]*eA*d[5mC]*dT*dG*dG*d[5mC]*dA*dA*dA*dG*d[5mC]*eA*eA*eA*eA*eT) [compound 209533]”: 47%. For the substance “209534 (antisense eA*eG*e[5mC]*eA*eT*dT*dA*d[5mC]*dT*dT*d[5mC]*dA*dT*dA*dT*eA*eA*eG*eG*eG) [compound 209534]”, the “% INHIB” value came to 35%. The same measure for “209535 (antisense eA*eT*eA*eA*e[5mC]*dA*dA*dT*dA*d[5mC]*dA*dA*dG*dT*d[5mC]*e[5mC]*eT*eA*eT*eG) [compound 209535]”: 39%; for “209536 (antisense e[5mC]*e[5mC]*eT*e[5mC]*e[5mC]*d[5mC]*dA*dT*dA*d[5mC]*dT*dA*dG*dA*dG*eA*eA*eG*eT*eA) [compound 209536]”: 36%; for “209537 (antisense eA*eG*eA*eG*eG*dT*dT*dT*dA*dT*d[5mC]*dT*dG*d[5mC]*d[5mC]*eA*eA*eA*eA*e[5mC]) [compound 209537]”: 43%. The same measure for “209538 (antisense eT*eG*eT*eG*eA*d[5mC]*dT*dT*dA*d[5mC]*d[5mC]*d[5mC]*dT*dA*dT*eT*eA*eA*eA*eG) [compound 209538]”: 28%. As to “209539 (antisense eG*e[5mC]*eT*eT*e[5mC]*d[5mC]*d[5mC]*d[5mC]*dA*dT*dT*dG*d[5mC]*dT*dG*eT*eT*eA*eG*eG) [compound 209539]”, the “% INHIB” value was 57%.

For “209540 (antisense e[5mC]*eA*e[5mC]*eA*eT*d[5mC]*d[5mC]*d[5mC]*dT*dT*dG*dT*dA*dA*dG*eT*eT*eG*eG*eA) [compound 209540]”, the “% INHIB” value was 52%. For “209541 (antisense eA*e[5mC]*e[5mC]*eA*eA*dG*dT*dA*d[5mC]*dT*dG*dT*dA*dA*dG*eA*eG*eA*eG*eG) [compound 209541]” the value was 40%; for “209542 (antisense e[5mC]*eT*eT*eG*e[5mC]*dT*dT*d[5mC]*d[5mC]*dA*d[5mC]*dT*dA*dA*dA*eA*eA*eT*eG*eA) [compound 209542]”, 74%.
